Reference: paper PMC9256669, “Monomethyl auristatin antibody and peptide drug conjugates for trimodal cancer chemo-radio-immunotherapy” (Nature Communications, 2022)
pIC50: −log10 of the molar value. Several values for one entry are separate records, joined by “and”; a condition that tells them apart may be missing. Identical values can stand only once. Non-standard residues stand in square brackets, D forms with d. Residues, ends and D or L forms follow the SMILES beside them. *: point of attachment. Dolaproine = CO[C@@H]([C@@H]1CCCN1)[C@@H](C)C(=O)O; Dil = CC[C@H](C)[C@H](NC)[C@@H](CC(=O)O)OC; X1 = C[C@@H](N*)[C@@H](O)c1ccccc1; NMeV = CN[C@H](C(=O)O)C(C)C

How the values were obtained:
B16 = experiment: Cytotoxicity, Alamar Blue assay; format: cell-based, murine; conditions: B16, 72 h drug exposure, one value per biological replicate, read-out: IC50 values
Description: Murine colorectal (MC38 (ENH204-FP)) cancer cell lines were obtained from Kerafast. Murine head and neck MOC1 and MOC2 were generously provided by Dr. R. Uppaluri. CAL27 PIK3CA H1047R expressing cells and 4MOSC1 cells were generated in Dr. Gutkind’s laboratory and previously characterized[42],[55]. […] MC38 cells were cultured in DMEM supplemented with 10% FBS, 1 mM sodium pyruvate (Gibco), 1% non-essential amino acids (Gibco), and 10 mM HEPES (Gibco). MOC1 and MOC2 cells were cultured in IMDM (Lonza)/F-12K nutrient mixture at a 2:1 mixture with 5% FBS, 5 ng/ml EGF (EMD Millipore), 400 ng/ml hydrocortisone (Sigma), and […] insulin (Sigma). On receipt, each cell line was expanded, cryopreserved as low passage stocks, and routinely tested for mycoplasma. Cisplatin (Enzo Biosciences), paclitaxel (Sigma), and MMAE (Concortis) were reconstituted in DMSO. Clinical-grade CDX3379 was provided by Celldex. Clinical grade cetuximab (Erbitux, Lilly Medical) was obtained from UCSD Moores Cancer Center Pharmacy.
Cells were plated in 96-well plates and exposed to a drug concentration range for 72 h. Alamar Blue was added to the cells and allowed to incubate for 2–4 h at 37 °C. Plates were analyzed using a plate reader with fluorescence measured at 560 nm. Fractional survival was normalized to untreated control cell fluorescent values. Drug IC50 was calculated using Prism software (GraphPad, La Jolla, CA). Cell viability, cytotoxicity and apoptosis were also measured by ApoTox-Glo Triplex Assay (Promega).

[1] = Tumor drug measurement (MMAE by LC-MS/MS) after CDX3379-MMAE; format: in vivo, mouse; parameters: unit not given here; conditions: orthotopic CAL27 tongue xenografts (methods: CAL27 PIK3CA H1047R cells, NOD SCID), 2.5 nmoles CDX3379-MMAE i.v., tumors harvested 48 h, one value per tumor, vehicle 1.606, 2.873, a reviewer reads roughly 100 nM
Description: For CDX3379-MMAE drug measurements, 6-week-old female NOD SCID (University of California San Diego Animal Care Program) were injected orthotopically into the tongue with 150,000 CAL27 PIK3CA H1047R expressing cells in 20 µl of DMEM. After 10 days, mice were intravenously (i.v.) injected through the tail vein with 2.5 nmole of CDX3379-MMAE in 50 µl of PBS. […] Tumors were excised on days indicated in figure legends, weighed, and homogenized in 10 v/w of 2% acetic acid in 1:1 acetonitrile:water with a point sonicator (Fisher Scientific) using an amplitude range of 5–15% for 20 s on ice. Homogenates were centrifuged ([…], 10 min), supernatants collected for drug concentration measurements using LC–MS/MS. Drug concentration was determined by LC–MS/MS with Luna-2 C18 column and Agilent Trap XCT mass spectrometer. For MMAE tissue concentrations, integrated ion currents for m/z 682.4, 496.4 and m/z 686.4, 506.4 extracted from fragmented m/z 740.4 and 718.4, respectively, were combined. The total ion current was fit to a standard curve generated for each drug to quantitate tissue drug concentration.

Compound | pIC50 (B16) | Tumor MMAE concentration [1]
CC[C@H](C)[C@@H]([C@@H](CC(=O)N1CCC[C@H]1[C@H](OC)[C@@H](C)C(=O)N[C@H](C)[C@@H](O)c1ccccc1)OC)N(C)C(=O)[C@@H](NC(=O)[C@@H](NC)C(C)C)C(C)C [MMAE, monomethyl auristatin E] (H-[NMeV]V[Dil][Dolaproine]-X1) | 8.75 and 8.63 and 8.71 and 8.51 | 
CDX3379-MMAE: anti-HER3 antibody CDX3379 with 4 MMAE per antibody via MC-VC-PABC linker, labeled with Cy5 |  | 124.8 and 143.8 and 123.3 and 91.37
